The NIST ThermoML archive (doi:10.1016/j.fluid.2016.06.019)

Experiments:
[1] = wn = mass fraction of the nth substance listed; details: 298.15 K, 100 kPa, Liquid, Vibrating tube method
[2] = refractive index (Na D-line) (dimensionless); wn = mass fraction of the nth substance listed; details: 298.15 K, 100 kPa, Liquid, Standard Abbe refractometry
[3] = refractive index (Na D-line) (dimensionless); details: 298.15 K; 100 kPa; Liquid; Standard Abbe refractometry

N.N.O=S(=O)(O)O [ammonium sulfate] + O
Details | mass density, [1] [kg/m3] | refractive index, [2]
w1 = 0.0005 | 997.4 | 1.33259
w1 = 0.0011 | 997.7 | 1.33268
w1 = 0.0053 | 1000.3 | 1.33337
w1 = 0.0104 | 1003.3 | 1.33425
w1 = 0.0208 | 1009.4 | 1.33594
w1 = 0.0412 | 1021.2 | 1.33921
w1 = 0.0712 | 1038.4 | 1.34393
w1 = 0.1007 | 1055.3 | 1.34856

O=S(=O)([O-])[O-].[Na+].[Na+] [sodium sulfate] + O
Details | mass density, [1] [kg/m3] | refractive index, [2]
w1 = 0.0005 | 997.6 | 1.33258
w1 = 0.0011 | 998.1 | 1.33266
w1 = 0.0053 | 1002 | 1.33331
w1 = 0.0108 | 1006.9 | 1.33414
w1 = 0.0214 | 1016.5 | 1.3357
w1 = 0.042 | 1035.1 | 1.33875
w1 = 0.0719 | 1062.6 | 1.34307
w1 = 0.0994 | 1088.5 | 1.34535

O [water]
Details | refractive index
[3] | 1.3325

O [water] + N.N.O=S(=O)(O)O
Details | refractive index
[2], w2 = 0 | 1.3325

O [water] + O=S(=O)([O-])[O-].[Na+].[Na+]
Details | refractive index
[2], w2 = 0 | 1.3325
